Source: the NIST ThermoML archive (doi:10.1016/j.jct.2007.02.009)
Several values for one entry are separate records, joined by “and”; a condition that tells them apart may be missing. Equal entries are not always repeated.

Assay: molar heat capacity at constant pressure
Details: 101.33 kPa

CN(C)C=O [dimethylformamide]
Crystal
Details	molar heat capacity at constant pressure [J/K/mol]
5 K	0.221
7.54 K	0.753
7.59 K	0.763
8.21 K	0.931
8.29 K	0.964
8.88 K	1.19
9.41 K	1.46
9.52 K	1.55
9.91 K	1.74
10 K	1.79
10.37 K	1.995
10.81 K	2.263
11.24 K	2.533
11.66 K	2.776
12.07 K	2.996
12.44 K	3.216
12.83 K	3.574
13.05 K	3.741
13.48 K	4.017
14.16 K	4.518
14.83 K	5.048
15 K	5.187
15.49 K	5.622
16.15 K	6.115
16.81 K	6.702
17.45 K	7.307
18.1 K	7.9
18.75 K	8.506
19.2 K	8.88
19.64 K	9.354
20 K	9.678
20.28 K	9.986
21.81 K	11.31
24.35 K	13.98
25 K	14.64
26.01 K	15.67
28.18 K	17.9
29.89 K	19.58
30 K	19.63
32.35 K	21.81
34.82 K	24.08
37.3 K	26.24
39.15 K	27.83
40 K	28.52
40.98 K	29.35
42.91 K	30.92
43.45 K	31.29
44.78 K	32.3
45.93 K	33.16
49.17 K	35.67
50 K	36.34
51.08 K	37.1
53.56 K	38.97
56.03 K	40.81
58.51 K	42.63
60 K	43.49
60.98 K	44.1
63.46 K	45.65
65.93 K	47.18
68.4 K	49.19
70 K	49.95
70.88 K	50.36
73.21 K	52.04
75.22 K	52.99
77.32 K	54.31
79.34 K	55.1
80 K	55.45
82.06 K	56.51
84.87 K	57.9
87.85 K	59.4
90 K	60.47
90.82 K	60.89
93.8 K	62.3
96.76 K	63.67
99.73 K	65.16
100 K	65.36
102.7 K	66.55
105.67 K	67.8
106.15 K	68.12
108.64 K	69.18
109.01 K	69.31
110 K	69.68
111.61 K	70.34
111.97 K	70.65
114.57 K	71.6
114.94 K	71.75
117.89 K	73.04
120 K	73.76
120.75 K	74.11
123.71 K	75.3
126.68 K	76.26
129.64 K	77.49
130 K	77.82
132.61 K	78.6
138.24 K	80.9
140 K	81.78
146.91 K	84.72
149.76 K	85.72
150 K	85.56
152.73 K	86.72
155.69 K	87.47
158.66 K	88.47
160 K	89.05
161.62 K	89.38
164.59 K	90.46
167.56 K	91.54
170 K	92.62
170.53 K	92.79
173.49 K	94.53
178.4 K	96.61
180 K	96.36
184.4 K	99.44
184.65 K	101.2
190 K	100.5
191.1 K	105.5
191.8 K	105
198.9 K	124.1
200 K	104.6
200.5 K	130.6
201.1 K	139.5
201.51 K	150.5
210 K	107.7
212.86 K	108.1

Liquid, Vacuum adiabatic calorimetry
Details	molar heat capacity at constant pressure
212.86 K	141.4 J/K/mol
213 K	142.4 J/K/mol
215.3 K	141.5 J/K/mol
216.03 K	141.8 J/K/mol
217.78 K	141.7 J/K/mol
217.98 K	142 J/K/mol
220 K	141.9 J/K/mol
220.95 K	141.8 J/K/mol
222.56 K	142 J/K/mol
223.91 K	142.2 J/K/mol
225.22 K	142.2 J/K/mol
226.86 K	142.2 J/K/mol
228.18 K	142.4 J/K/mol
229.81 K	142.5 J/K/mol
230 K	142.5 J/K/mol
230.54 K	142.5 J/K/mol
231.13 K	142.7 J/K/mol
232.77 K	142.5 J/K/mol
233.19 K	142.9 J/K/mol
235.55 K	142.5 J/K/mol
235.72 K	142.8 J/K/mol
236.14 K	142.7 J/K/mol
238.66 K	143 J/K/mol
238.73 K	143.2 J/K/mol
239.07 K	143 J/K/mol
240 K	143 J/K/mol
241.6 K	143.1 J/K/mol
242.25 K	143.5 J/K/mol
244.54 K	143.3 J/K/mol
245.77 K	143.3 J/K/mol
247.48 K	143.4 J/K/mol
249.28 K	143.4 J/K/mol
250 K	143.6 J/K/mol
250.41 K	143.5 J/K/mol
252.78 K	143.7 J/K/mol
253.34 K	143.5 J/K/mol
256.26 K	143.9 J/K/mol
256.28 K	144.1 J/K/mol
259.17 K	144 J/K/mol
260 K	144.2 J/K/mol
261.17 K	144.3 J/K/mol
262.1 K	144.3 J/K/mol
262.79 K	144.5 J/K/mol
263.79 K	144.4 J/K/mol
265.01 K	144.6 J/K/mol
266.68 K	144.8 J/K/mol
267.92 K	144.6 J/K/mol
269.56 K	145 J/K/mol
270 K	144.9 J/K/mol
270.82 K	144.8 J/K/mol
272.44 K	145.3 J/K/mol
273.71 K	145 J/K/mol
275.31 K	145.4 J/K/mol
276.6 K	145.4 J/K/mol
278.16 K	145.6 J/K/mol
279.47 K	145.6 J/K/mol
280 K	145.9 J/K/mol
281.01 K	146.1 J/K/mol
283.85 K	146.6 J/K/mol
286.68 K	146.7 J/K/mol
289.51 K	147 J/K/mol
290 K	147.1 J/K/mol
292.32 K	147.4 J/K/mol
298.15 K	148.2 J/K/mol and 148.2 J/K/mol
300 K	148.5 J/K/mol
301.5 K	148.7 J/K/mol
305 K	149 J/K/mol
